Measured values taken from PubChem BioAssay (NCI).
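96-well plates; 48 h exposure; 5 concentrations. Endpoints by linear interpolation between flanking doses. Not reached: highest tested concentration assigned. At the TGI there is no net growth.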

What was measured:
Experiment in all cases: NCI anticancer screen, dose series, 48 h
[1] = tested on: MDA-N
[2] = tested on: NCI-H522 lung
[3] = tested on: EKVX NSCLC
[4] = tested on: TK-10 renal
[5] = tested on: OVCAR-5 ovarian
[6] = tested on: NCI-H460 lung
[7] = tested on: MCF7 breast
[8] = tested on: IGROV1 ovarian
[9] = tested on: SF-295 CNS
[10] = tested on: MDA-MB-231 breast
[11] = tested on: RPMI-8226 leukemia
[12] = tested on: OVCAR-3 ovarian
[13] = tested on: HL-60(TB) leukemia
[14] = tested on: SF-539 CNS
[15] = tested on: MDA-MB-435
[16] = tested on: HS 578T breast
[17] = tested on: HCT-15 colon
[18] = tested on: OVCAR-4 ovarian
[19] = tested on: OVCAR-8 ovarian
[20] = tested on: MALME-3M melanoma
[21] = tested on: SF-268 CNS
[22] = tested on: KM12 colon
[23] = tested on: SNB-75 CNS
[24] = tested on: A549 NSCLC
[25] = tested on: COLO 205 colon
[26] = tested on: T-47D breast
[27] = tested on: SK-MEL-2 melanoma
[28] = tested on: UO-31 renal
[29] = tested on: HCC-2998 colon
[30] = tested on: NCI-H226 lung
[31] = tested on: M14 melanoma
[32] = tested on: CAKI-1 renal
[33] = tested on: HT29 colon
[34] = tested on: BT-549 breast
[35] = tested on: UACC-257 melanoma
[36] = tested on: PC-3 prostate
[37] = tested on: HOP-62 NSCLC
[38] = tested on: 786-0 renal
[39] = tested on: DU-145 prostate
[40] = tested on: SK-OV-3 ovarian
[41] = tested on: A498 renal
[42] = tested on: NCI/ADR-RES ovarian
[43] = tested on: NCI-H23 lung
[44] = tested on: ACHN renal
[45] = tested on: U251 CNS
[46] = tested on: RXF 393 renal
[47] = tested on: LOX IMVI melanoma
[48] = tested on: UACC-62 melanoma
[49] = tested on: SK-MEL-5 melanoma
[50] = tested on: CCRF-CEM leukemia
[51] = tested on: SW-620 colon
[52] = tested on: SNB-19 CNS
[53] = tested on: HCT-116 colon
[54] = tested on: K-562 leukemia
[55] = tested on: SK-MEL-28 melanoma
[56] = tested on: SN12C renal
[57] = tested on: HOP-92 NSCLC
[58] = tested on: MOLT-4 leukemia
[59] = tested on: SR leukemia

`Clc1ccc(CCN(CCc2ccc(Cl)c(Cl)c2)CCN2CCCC2)cc1Cl` was tested, and the TGI [1] was 3.32 µM, the TGI [2] was 3.2 µM and the TGI [3] was 4.4 µM. It also gave a TGI [4] of 3.17 µM, a TGI [5] of 3.23 µM and a TGI [6] of 3.34 µM. For the same compound, the TGI [7] was 2.88 µM, the TGI [8] was 2.93 µM and the TGI [9] was 3.3 µM. For the same compound, the TGI [10] was 2.91 µM, the TGI [11] was 5.38 µM and the TGI [12] was 3.2 µM. The TGI [13] was 3.25 µM, the TGI [14] was 3.18 µM and the TGI [15] was 2.75 µM. For the same compound, the TGI [16] was 4.47 µM, the TGI [17] was 3.28 µM and the TGI [18] was 3.66 µM. The TGI [19] was 3.06 µM, the TGI [20] was 3.5 µM and the TGI [21] was 3.73 µM. The TGI [22] was 3.04 µM, the TGI [23] was 4.73 µM and the TGI [24] was 3.15 µM. The TGI [25] was 3.48 µM, the TGI [26] was 12.3 µM and the TGI [27] was 3.04 µM. It also gave a TGI [28] of 3 µM, a TGI [29] of 3.19 µM and a TGI [30] of 4.07 µM. The TGI [31] was 3.1 µM, the TGI [32] was 3.02 µM and the TGI [33] was 3.41 µM. It also gave a TGI [34] of 3.65 µM, a TGI [35] of 3.37 µM and a TGI [36] of 2.91 µM. The TGI [37] was 3.03 µM, the TGI [38] was 3.14 µM and the TGI [39] was 4.3 µM. It also gave a TGI [40] of 3.49 µM, a TGI [41] of 3.23 µM and a TGI [42] of 3.39 µM. For the same compound, the TGI [43] was 3.42 µM, the TGI [44] was 3.2 µM and the TGI [45] was 2.95 µM. For the same compound, the TGI [46] was 3.33 µM, the TGI [47] was 2.95 µM and the TGI [48] was 3.06 µM. For the same compound, the TGI [49] was 3.2 µM and the TGI [50] was 2.73 µM.

In the case of `OC(CNc1ccccn1)c1ccccc1` (configuration not stated), the TGI [1] is reported as > 100 µM, the TGI [2] is reported as > 100 µM and the TGI [3] is reported as > 100 µM. The TGI [4] was > 100 µM, the TGI [5] was > 100 µM and the TGI [6] was > 100 µM. The TGI [51] was > 100 µM, the TGI [7] was > 100 µM and the TGI [8] was > 100 µM. The TGI [9] was > 100 µM, the TGI [10] was > 100 µM and the TGI [11] was > 100 µM. For the same compound, the TGI [12] was > 100 µM, the TGI [13] was > 100 µM and the TGI [14] was > 100 µM. For the same compound, the TGI [15] was > 100 µM, the TGI [16] was > 100 µM and the TGI [17] was > 100 µM. The TGI [18] was > 100 µM, the TGI [19] was > 100 µM and the TGI [20] was > 100 µM. The TGI [21] was > 100 µM, the TGI [52] was > 100 µM and the TGI [22] was > 100 µM. For the same compound, the TGI [23] was > 100 µM, the TGI [24] was > 100 µM and the TGI [25] was > 100 µM. The TGI [26] was > 100 µM, the TGI [27] was > 100 µM and the TGI [28] was > 100 µM. The TGI [53] was > 100 µM, the TGI [29] was > 100 µM and the TGI [30] was > 100 µM. For the same compound, the TGI [31] was > 100 µM, the TGI [32] was > 100 µM and the TGI [33] was > 100 µM. The TGI [34] was > 100 µM, the TGI [35] was > 100 µM and the TGI [36] was > 100 µM. The TGI [54] was > 100 µM, the TGI [37] was > 100 µM and the TGI [38] was > 100 µM. For the same compound, the TGI [39] was > 100 µM, the TGI [40] was > 100 µM and the TGI [41] was > 100 µM. For the same compound, the TGI [42] was > 100 µM, the TGI [43] was > 100 µM and the TGI [44] was > 100 µM. For the same compound, the TGI [55] was > 100 µM, the TGI [45] was > 100 µM and the TGI [46] was > 100 µM. For the same compound, the TGI [47] was > 100 µM, the TGI [56] was > 100 µM and the TGI [48] was > 100 µM. The TGI [49] was > 100 µM, the TGI [57] was > 100 µM and the TGI [50] was > 100 µM. For the same compound, the TGI [58] was > 100 µM.

`CC(=O)SCCC(NC(=S)Nc1ccccc1)P(=O)(Oc1ccccc1)Oc1ccccc1` (configuration not stated) was tested, and the TGI [1] was > 100 µM, the TGI [2] was > 100 µM and the TGI [3] was > 100 µM. For the same compound, the TGI [4] was > 100 µM, the TGI [5] was > 100 µM and the TGI [59] was > 100 µM. The TGI [6] was > 100 µM, the TGI [51] was > 100 µM and the TGI [7] was > 100 µM. The TGI [8] was > 100 µM, the TGI [9] was > 100 µM and the TGI [10] was > 100 µM. For the same compound, the TGI [12] was > 100 µM, the TGI [13] was > 100 µM and the TGI [14] was > 100 µM. For the same compound, the TGI [15] was > 100 µM, the TGI [16] was > 100 µM and the TGI [17] was > 100 µM. The TGI [18] was > 100 µM, the TGI [19] was > 100 µM and the TGI [20] was > 100 µM. For the same compound, the TGI [21] was > 100 µM, the TGI [52] was > 100 µM and the TGI [22] was > 100 µM. The TGI [23] was > 100 µM, the TGI [24] was > 100 µM and the TGI [25] was > 100 µM. The TGI [26] was > 100 µM, the TGI [28] was > 100 µM and the TGI [53] was > 100 µM. The TGI [29] was > 100 µM, the TGI [30] was > 100 µM and the TGI [31] was > 100 µM. The TGI [32] was > 100 µM, the TGI [33] was > 100 µM and the TGI [35] was > 100 µM. The TGI [54] was > 100 µM, the TGI [37] was > 100 µM and the TGI [38] was > 100 µM. The TGI [39] was > 100 µM, the TGI [40] was > 100 µM and the TGI [42] was > 100 µM. The TGI [43] was > 100 µM, the TGI [44] was > 100 µM and the TGI [55] was > 100 µM. The TGI [45] was > 100 µM, the TGI [46] was > 100 µM and the TGI [47] was > 100 µM. For the same compound, the TGI [56] was > 100 µM, the TGI [48] was > 100 µM and the TGI [57] was > 100 µM. The TGI [50] was > 100 µM and the TGI [58] was > 100 µM.

In the case of `CC(C)(C)c1cc([N+](=O)[O-])cc([N+](=O)[O-])c1O`, the TGI [1] is reported as > 10 µM, the TGI [2] is reported as > 10 µM and the TGI [3] is reported as > 10 µM. For the same compound, the TGI [4] was > 10 µM, the TGI [5] was > 10 µM and the TGI [59] was > 10 µM. The TGI [6] was > 10 µM, the TGI [51] was > 10 µM and the TGI [7] was > 10 µM. For the same compound, the TGI [8] was > 10 µM, the TGI [9] was > 10 µM and the TGI [10] was > 10 µM. For the same compound, the TGI [11] was > 10 µM, the TGI [12] was > 10 µM and the TGI [13] was > 10 µM. The TGI [14] was > 10 µM, the TGI [15] was > 10 µM and the TGI [16] was > 10 µM. For the same compound, the TGI [17] was > 10 µM, the TGI [18] was > 10 µM and the TGI [19] was > 10 µM. For the same compound, the TGI [21] was > 10 µM, the TGI [52] was > 10 µM and the TGI [22] was > 10 µM. The TGI [23] was > 10 µM, the TGI [24] was > 10 µM and the TGI [25] was > 10 µM. For the same compound, the TGI [26] was > 10 µM, the TGI [27] was > 10 µM and the TGI [28] was > 10 µM. For the same compound, the TGI [53] was > 10 µM, the TGI [29] was > 10 µM and the TGI [30] was > 10 µM. For the same compound, the TGI [31] was > 10 µM, the TGI [32] was > 10 µM and the TGI [33] was > 10 µM. The TGI [35] was > 10 µM, the TGI [36] was > 10 µM and the TGI [54] was > 10 µM. The TGI [37] was > 10 µM, the TGI [38] was > 10 µM and the TGI [39] was > 10 µM. The TGI [40] was > 10 µM, the TGI [42] was > 10 µM and the TGI [43] was > 10 µM. For the same compound, the TGI [44] was > 10 µM, the TGI [55] was > 10 µM and the TGI [45] was > 10 µM. For the same compound, the TGI [46] was > 10 µM, the TGI [47] was > 10 µM and the TGI [56] was > 10 µM. The TGI [48] was > 10 µM, the TGI [49] was > 10 µM and the TGI [57] was > 10 µM. The TGI [50] was > 10 µM and the TGI [58] was > 10 µM.
